# Reference: patent US20260027068A1, “METHODS OF ADM[…]-KETAMINE” (Perception Neuroscience, Inc., priority 2022, published 2026)
# Assay: Temperature (vital signs)
# Settings: 30 mg
# Method: The Investigational Medicinal Product (IMP) R(−)-ketamine hydrochloride in sterile water for intravenous injection was investigated as an […] treatment of TRD. The International Union of Pure and Applied Chemistry (IUPAC) name is of the IMP is (2R)-2-(2-chlorophenyl)-2-(methylamino)cyclohexan-1-one. Subjects received the solution at either 30 mg or 60 mg dose, or a placebo. The IMP or placebo was administered on Day 1 as a single IV infusion via an electronic infusion pump over 40 minutes. The duration of study participation for each subject was up to 29 days including a screening period, a 3-day in-clinic visit, and 2 follow-up visits. 101 subjects were enrolled in approximately 20 study centers in the EU and the US.
# Tympanic or temporal temperature, heart rate, blood pressure (SBP/DBP), respiratory rate, and SpO2 were assessed. Blood pressure and pulse measurements will be assessed with a completely automated device while the subject is supine or semi-supine. Manual techniques will be used only if an automated device is not available. Blood pressure and pulse measurements should be preceded by at least 5 minutes of rest for the subject in a quiet setting without distractions (e.g., television, cell phones). An abnormal blood pressure value at screening may be repeated once after 5 minutes of relaxation to determine the subject's eligibility. Blood pressure was recorded using the same arm and position (supine or semi-supine) throughout the study, where possible. Vital signs (to be taken before blood collection for laboratory tests) consisted of 1 pulse and 3 blood pressure measurements (3 consecutive blood pressure readings will be recorded at intervals of at least 1 minute). The average of the 3 blood pressure readings was recorded in the CRF. A pulse oximeter was used to measure peripheral capillary oxygen saturation (SpO2) continuously from pre-dose until 4-hours post-dose. A pulse oximeter was clipped onto the finger or foot of the subject, and light will be sent through the finger or foot and measured on the other side.
# In these tables, baseline value is defined as the last non-missing value prior to study drug administration.
structure (smiles),measurement,setting,value
"CN[C@@]1(c2ccccc2Cl)CCCCC1=O.Cl [R(−)-ketamine, (2R)-2-(2-chlorophenyl)-2-(methylamino)cyclohexan-1-one]","Temperature, Max","Day 1, 15 minutes",37.2 °C
same,"Temperature, Mean","Day 1, 15 minutes",36.57 °C
same,"Temperature, Median","Day 1, 15 minutes",36.50 °C
same,"Temperature, Min","Day 1, 15 minutes",36.4 °C
same,"Temperature, Max","Day 1, 40 minutes",37.2 °C
same,"Temperature, Mean","Day 1, 40 minutes",36.58 °C
same,"Temperature, Median","Day 1, 40 minutes",36.60 °C
same,"Temperature, Min","Day 1, 40 minutes",36.2 °C
same,"Temperature, Max","Day 1, 60 minutes",37.2 °C
same,"Temperature, Mean","Day 1, 60 minutes",36.57 °C
same,"Temperature, Median","Day 1, 60 minutes",36.50 °C
same,"Temperature, Min","Day 1, 60 minutes",36.3 °C
same,"Temperature, Max","Day 1, 2 hours",37.2 °C
same,"Temperature, Mean","Day 1, 2 hours",36.62 °C
same,"Temperature, Median","Day 1, 2 hours",36.60 °C
same,"Temperature, Min","Day 1, 2 hours",36.4 °C
same,"Temperature, Max","Day 1, 4 hours",37.1 °C
same,"Temperature, Mean","Day 1, 4 hours",36.57 °C
same,"Temperature, Median","Day 1, 4 hours",36.60 °C
same,"Temperature, Min","Day 1, 4 hours",36.3 °C
same,"Temperature, Max","Day 1, 6 hours",37.2 °C
same,"Temperature, Mean","Day 1, 6 hours",36.63 °C
same,"Temperature, Median","Day 1, 6 hours",36.60 °C
same,"Temperature, Min","Day 1, 6 hours",36.3 °C
same,"Temperature, Max",Day 2 - Discharge,37.1 °C
same,"Temperature, Mean",Day 2 - Discharge,36.59 °C
same,"Temperature, Median",Day 2 - Discharge,36.60 °C
same,"Temperature, Min",Day 2 - Discharge,35.9 °C
same,"Temperature, Max",Day 8,36.8 °C
same,"Temperature, Mean",Day 8,36.50 °C
same,"Temperature, Median",Day 8,36.50 °C
same,"Temperature, Min",Day 8,36.1 °C
same,"Temperature, Max",Day 15,37.1 °C
same,"Temperature, Mean",Day 15,36.60 °C
same,"Temperature, Median",Day 15,36.60 °C
same,"Temperature, Min",Day 15,36.2 °C
same,"Temperature, Change from Baseline, Max","to Day 1, 15 minutes",0.4 °C
same,"Temperature, Change from Baseline, Mean","to Day 1, 15 minutes",0.05 °C
same,"Temperature, Change from Baseline, Median","to Day 1, 15 minutes",0.10 °C
same,"Temperature, Change from Baseline, Min","to Day 1, 15 minutes",−0.3 °C
same,"Temperature, Change from Baseline, Max","to Day 1, 40 minutes",0.5 °C
same,"Temperature, Change from Baseline, Mean","to Day 1, 40 minutes",0.05 °C
same,"Temperature, Change from Baseline, Median","to Day 1, 40 minutes",0.00 °C
same,"Temperature, Change from Baseline, Min","to Day 1, 40 minutes",−0.2 °C
same,"Temperature, Change from Baseline, Max","to Day 1, 60 minutes",0.5 °C
same,"Temperature, Change from Baseline, Mean","to Day 1, 60 minutes",0.05 °C
same,"Temperature, Change from Baseline, Median","to Day 1, 60 minutes",0.00 °C
same,"Temperature, Change from Baseline, Min","to Day 1, 60 minutes",−0.3 °C
same,"Temperature, Change from Baseline, Max","to Day 1, 2 hours",0.7 °C
same,"Temperature, Change from Baseline, Mean","to Day 1, 2 hours",0.08 °C
same,"Temperature, Change from Baseline, Median","to Day 1, 2 hours",0.10 °C
same,"Temperature, Change from Baseline, Min","to Day 1, 2 hours",−0.2 °C
same,"Temperature, Change from Baseline, Max","to Day 1, 4 hours",0.5 °C
same,"Temperature, Change from Baseline, Mean","to Day 1, 4 hours",0.03 °C
same,"Temperature, Change from Baseline, Median","to Day 1, 4 hours",0.00 °C
same,"Temperature, Change from Baseline, Min","to Day 1, 4 hours",−0.4 °C
same,"Temperature, Change from Baseline, Max","to Day 1, 6 hours",0.9 °C
same,"Temperature, Change from Baseline, Mean","to Day 1, 6 hours",0.09 °C
same,"Temperature, Change from Baseline, Median","to Day 1, 6 hours",0.10 °C
same,"Temperature, Change from Baseline, Min","to Day 1, 6 hours",−0.4 °C
same,"Temperature, Change from Baseline, Max",to Day 2 - Discharge,0.5 °C
same,"Temperature, Change from Baseline, Mean",to Day 2 - Discharge,0.05 °C
same,"Temperature, Change from Baseline, Median",to Day 2 - Discharge,0.00 °C
same,"Temperature, Change from Baseline, Min",to Day 2 - Discharge,−0.3 °C
same,"Temperature, Change from Baseline, Max",to Day 8,0.6 °C
same,"Temperature, Change from Baseline, Mean",to Day 8,−0.03 °C
same,"Temperature, Change from Baseline, Median",to Day 8,0.00 °C
same,"Temperature, Change from Baseline, Min",to Day 8,−0.7 °C
same,"Temperature, Change from Baseline, Max",to Day 15,0.9 °C
same,"Temperature, Change from Baseline, Mean",to Day 15,0.05 °C
same,"Temperature, Change from Baseline, Median",to Day 15,0.00 °C
same,"Temperature, Change from Baseline, Min",to Day 15,−0.4 °C
